Reference: patent US20130096145A1, “Use of 1H-quinazoline-2,4-diones” (Novartis AG, priority 2010, published 2013)

Tests used:
[1] = system: mouse; experiment: Oral bioavailability: audiogenic mouse test and/or MES test; assay type: in vivo; conditions: oral administration
Experimental: The oral bioavailability was tested using the audiogenic mouse test (Audiogenic seizures, R. L. Collins; Chapter 14, pages: 347-372. In: Experimental Models of Epilepsy; By: Pupura, Penry, Tower, Woodbury, Walter, Raven Press, New York, 1972. Standard Book Number: 0-911216-26-X) and/or the MES test.
(§1) Compounds of the invention were tested in OF1 mice using the maximal electroshock test (MES Test) described in detail by Schmutz et al., Naunyn-Schmiedeberg's Arch Pharmacol 1990, 342, 61-66. Briefly, generalized tonic-clonic convulsions of the hind extremities were induced by passing electrical current through temporal electrodes (50 Hz, 18 mA, 0.2s). […] 30 mg/kg carbamazepine was used as a positive control; mice were classified as protected by a compound if the duration of the seizure lasted only 3 second or less. Five mice were used for each treatment condition and the percentage of protected mice was used as readout (i.e. a compound could give 0%, 20%, 40%, 60%, 80% or 100% protection). Compounds of the invention were given at a dose of 50 mg/kg, p.o., 1 hour prior to induction of convulsions (i.e. “pre-treatment time -1 h”). ED50 values (ED: effective dose) were calculated using GraphPad Prism, v4.02. 15 s after shock administration, mouse blood was collected for determination of compounds' blood exposure.

[2] = system: OF1 mice; experiment: Murine maximal electroshock test (MES Test); assay type: in vivo
Experimental: as §1

Row | Compound | In vivo orally active [1] | MES-Test (1 h, po) protection @25 ([2]; percentage of protected mice (5 per condition) @25, p.o., 1 h) | MES-Test (1 h, po) protection @50 ([2]; percentage of protected mice (5 per condition) @50, p.o., 1 h) | ED50 ([2]; Mus musculus, po, pre-treatment time 1 h, protected = seizure duration 3 s or less)
1 | COCCn1nccc1-c1cc2c(=O)n(NS(C)(=O)=O)c(=O)[nH]c2cc1C(C)C [Compound C-1, N-{7-Isopropyl-6-[2-(2-methoxy-ethyl)-2H-pyrazol-3-yl]-2,4-dioxo-1,4-dihydro-2H-quinazolin-3-yl}-methanesulfonamide] | yes | 40% @25 |  | 
2 | CCc1cc2[nH]c(=O)n(NS(C)(=O)=O)c(=O)c2cc1-c1ccnn1C(C)C [Compound C-6, N-[7-Ethyl-6-(2-isopropyl-2H-pyrazol-3-yl)-2,4-dioxo-1,4-dihydro-2H-quinazolin-3-yl]-methanesulfonamide] | yes |  | 20% @50 | 
3 | CC(C)n1nccc1-c1cc2c(=O)n(NS(C)(=O)=O)c(=O)[nH]c2cc1CF [Compound C-3, N-[7-Fluoromethyl-6-(2-isopropyl-2H-pyrazol-3-yl)-2,4-dioxo-1,4-dihydro-2H-quinazolin-3-yl]-methanesulfonamide] | Yes |  |  | 13.5 mg/kg
